Measurements reported in ChEMBL document CHEMBL4000153, “Bioactive Sesquiterpenoid and Polyacetylene Glycosides from Atractylodes lancea” (J Nat Prod, 2016).

Experiments:
BV-2 = test: Antiinflammatory activity in mouse BV2 cells assessed as inhibition of LPS-induced nitric oxide production after 24 hrs by Griess assay; assay type: functional, cell-based; conditions: BV-2, 24 h
HepG2 = test: Hepatoprotective activity against APAP-induced cell injury in human HepG2 cells assessed as survival rate at 10 uM after 48 hrs by MTT assay relative to control; assay type: functional; conditions: HepG2, 48 h, read-out: Survival

Row | IC50 (BV-2) [µM] | SMILES | viability at 10 µM (HepG2) [%]
1 | 11.4 | CC1=CC(=O)C=C(CO)[C@@]12CC[C@@H](C(C)(C)O[C@@H]1O[C@H](CO)[C@@H](O)[C@H](O)[C@H]1O)C2 | 
2 |  | CC1=CC(=O)C=C(CO)[C@@]12CC[C@@H](C(C)(C)O[C@@H]1O[C@H](CO[C@@H]3OC[C@](O)(CO)[C@H]3O)[C@@H](O)[C@H](O)[C@H]1O)C2 | 58.2
3 |  | COC(=O)c1cc(OC)c2c(c1-c1c(CO)cc(OC)c3c1OCO3)OCO2 [BICYCLOL] | 52.9
4 | 4.77 | COc1cc(/C=C/C(=O)CC(=O)/C=C/c2ccc(O)c(OC)c2)ccc1O [CURCUMIN] | 
